This test has as its target T1, GIRK1-S65A with GIRK2 (UniProt P48542+P48549, S65A).
T1 construct: expressed in transfected cells; host or cells: HEK293 cells
T1 sequence (P48549 1-501 S65A): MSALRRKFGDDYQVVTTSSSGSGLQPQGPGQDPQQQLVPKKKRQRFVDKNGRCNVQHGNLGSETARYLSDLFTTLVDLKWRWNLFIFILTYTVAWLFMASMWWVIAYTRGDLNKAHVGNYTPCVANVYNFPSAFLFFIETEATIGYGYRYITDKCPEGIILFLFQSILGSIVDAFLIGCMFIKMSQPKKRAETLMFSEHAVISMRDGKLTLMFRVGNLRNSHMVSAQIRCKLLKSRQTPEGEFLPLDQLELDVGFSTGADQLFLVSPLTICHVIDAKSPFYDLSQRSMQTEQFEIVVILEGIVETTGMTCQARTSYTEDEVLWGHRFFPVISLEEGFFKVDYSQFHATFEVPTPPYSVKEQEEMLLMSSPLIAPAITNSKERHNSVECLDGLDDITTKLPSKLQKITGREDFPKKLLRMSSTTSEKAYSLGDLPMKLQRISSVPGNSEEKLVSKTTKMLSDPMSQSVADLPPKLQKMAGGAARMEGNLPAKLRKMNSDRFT
T1 sequence (P48542 1-425): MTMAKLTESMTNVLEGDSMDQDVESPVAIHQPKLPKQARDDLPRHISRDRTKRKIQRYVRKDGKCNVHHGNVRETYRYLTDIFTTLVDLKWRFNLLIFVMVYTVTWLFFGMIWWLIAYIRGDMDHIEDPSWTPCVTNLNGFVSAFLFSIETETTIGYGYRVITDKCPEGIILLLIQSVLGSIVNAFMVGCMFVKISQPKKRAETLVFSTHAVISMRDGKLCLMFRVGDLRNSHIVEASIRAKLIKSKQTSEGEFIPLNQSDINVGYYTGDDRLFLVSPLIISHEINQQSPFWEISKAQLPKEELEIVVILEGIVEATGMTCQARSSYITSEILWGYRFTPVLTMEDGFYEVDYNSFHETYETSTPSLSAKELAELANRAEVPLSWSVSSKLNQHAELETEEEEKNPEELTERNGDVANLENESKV
Kind of test: 5-ptaseOCRL current inhibition, GIRK1/2 channels containing GIRK1-S65A subunits. The format is cell-based, human GIRK1, mouse GIRK2. The settings on record: 10 μM GAT1508. The text has this:
To identify changes in specific channel residue interactions with PIP2 upon ligand binding, the inventors carried out Principal Component Analysis (PCA) in the presence and absence of ML297 and GAT1508. The PCA analysis implicated changes in the slide (or interfacial) helix interactions with PIP2 upon ligand binding. Polar interactions could be formed between GIRK2^FD(Y76) and GIRK4^FD(Y71) with the P(4,5) of PIP2 when ML297 was bound to the same subunit (FIG. 39 top, FIG. 40). In contrast, when GAT1508 was bound this interaction was retained by GIRK2^FD but not GIRK4^FD (FIG. 39 bottom, FIG. 40). The corresponding GIRK1(S65) residue (FIG. 41, highlighted with vertical rectangle) could be serving the same role in stabilizing the phosphoinositol headgroup for interactions with non-ligand binding subunits. As polar residues, both Ser and Tyr could form H-bond interactions with PIP2. […]
Patch-clamp recording: Whole-cell currents were recorded with an Axopatch 200B amplifier (Molecular Devices) controlled via a USB-interface (National Instruments) using WinWCP software (University of Strathclyde). […] The barium-sensitive component of the current, observed when cells were perfused with the high-K^+ buffer, was analyzed and was determined by perfusing 5 mM BaCl2 in the high-K^+ buffer at the end of each experiment. […]

In the case of `Cc1cc(NC(=O)Nc2ccc(Br)s2)n(-c2ccccc2)n1` [GAT1508, 1-(5-bromothiophen-2-yl)-3-(3-methyl-1-phenyl-1H-pyrazol-5-yl)urea], the “protection of current from 5-ptaseOCRL (in words)” value is reported as “not protected”.

These data come from patent US12351574B2, “Selective ligands for modulation of GIRK channels” (Northeastern University, priority 2018, dated 2025).
